Data reported in patent EP0513703A2, “Carbamate esters of eseroline having anticholinesterase activity, a process for their preparation and relative pharmaceutical compositions containing them as the active principle” (priority 1991, dated 1992).
Where two headings read alike, the source gives them in different places.

Legend:
mice (Swiss strain) [1] = test: Acute toxicity, LD50 by oral route in mice (class D derivatives); assay type: in vivo; settings: mouse, suspension in 2 % carboxymethylcellulose, observation 7 days
Description: (§1) The letal doses 50 (LD50) by oral route (suspension in 2 % carboxymethylcellulose) are reported hereinbelow: TABLE 6

[2] = test system: acetylcholinesterase (AchE); assay type: in vivo, Wistar male rats; settings: rat
rabbit = test: Effect on the duration of the curarization by succinylcholine (class D derivatives); assay type: in vivo; settings: anesthetized rabbit, 0.5 mg intravenous
SWISS male mice [3] = test: Electroencephalographic activity (class D derivatives); assay type: in vivo; settings: 3mg/kg/os, in the course of the successive 30 minutes
[4] = Pharmacokinetics, plasma level by HPLC (MGF001); assay type: in vivo, Wistar male rats; settings: rat, 2mg/kg/os
Method: The presence of said substance in plasma was detected by HPLC.
With the optimized method the detection limit was of 0.15 µg per ml of plasma.

mouse [5] = test: Spontaneous motility, Dews method modified according to Carminati (class D derivatives); assay type: in vivo; settings: mouse (Swiss)
Description: (§2) The Dews method was used, modified according to Carminati (Arch. int. Pharmacodyn. et Thér 181, 68,1969).

SWISS male mice [6] = test: Electroencephalographic activity (class E derivatives); assay type: in vivo; settings: 0.4 mg/kg/os, in the course of the successive 30 minutes
[7] = Pharmacokinetics, plasma level by HPLC (MS001); assay type: in vivo, Wistar male rats; settings: rat, 0.5 mg/kg/os
Method: The presence of MS001 in plasma was detected by HPLC.
With the optimized method the detection limit was of 0.20 µg per ml of plasma.

mice (Swiss strain) [8] = test: Acute toxicity, LD50 by oral route in mice (class E derivatives); assay type: in vivo; settings: mouse, suspension in 2 % carboxymethylcellulose, observation 7 days
Description: (§3) The letal doses 50 (LD50) by oral route (suspension in 2 % carboxymethylcellulose) are reported herinbelow: TABLE 9

mouse [9] = test: Spontaneous motility, Dews method modified according to Carminati (class E derivatives); assay type: in vivo; settings: mouse (Strain Swiss)
Description: as §2

acetylcholinesterase = assay type: in vivo, Wistar male rats; settings: rat
[10] = Acute toxicity, LD50 by oral administration in mice (class F derivatives); settings: both, Swiss, mouse, in vivo, po
[11] = Acute toxicity, LD50 by oral route in mice (class E derivatives); assay type: in vivo; settings: both sexes, Swiss, in vivo, mouse, suspension in 2 % carboxymethylcellulose, observation 7 days, read-out: LD50 per os
Description: as §3

SWISS mice [12] = test: Antagonism of the central stimulating (hypermotor) effect of scopolamine (class A derivatives); assay type: in vivo; settings: given 30 minutes before scopolamine 1 mg/kg s.c.
Description: (§4) At this dose the substance provoked in all the animals a considerable increase (80-100%) of the spontaneous motility, studied according to the above mentioned method.

mouse [13] = test: Toxicity, LD50 by intraperitoneal route (class C derivatives); assay type: in vivo
Description: In the following table reported are the LD50 values determined on mouse for the compounds listed and compared with the corresponding LD50 value for physostigmine, administered by the same (intraperitoneal) route.

mouse [14] = test: Spontaneous motility, Dews method modified according to Carminati (class A derivatives); assay type: in vivo; settings: mouse (Swiss), minimum doses
Description: as §2

[15] = Acute toxicity, LD50 by oral route in mice (class D derivatives); assay type: in vivo; settings: both sexes, Swiss, in vivo, mouse, suspension in 2 % carboxymethylcellulose, observation 7 days, read-out: LD50 per os
Description: as §1

SWISS mice [16] = test: Antagonism of the central stimulating (hypermotor) effect of scopolamine (class D derivatives); assay type: in vivo; settings: given 30 minutes before scopolamine 1 mg/kg s.c.
Description: as §4

SWISS mice [17] = test: Antagonism of the central stimulating (hypermotor) effect of scopolamine (class E derivatives); assay type: in vivo; settings: given 30 minutes before scopolamine 1 mg/kg s.c.
Description: At this dose the substance provoked a considerable increase (80-100%) of the spontaneous motility, studied according to the above mentioned method.

[18] = Acute toxicity, LD50 by oral route in mice (class A derivatives); assay type: in vivo; settings: both sexes, Swiss, in vivo, mouse, suspension in 2 % carboxymethylcellulose, observation 7 days, read-out: LD50 per os
Description: The letal doses 50 (LD50) by oral route (suspension in 2 % carboxymethylcellulose) are reported herinbelow: TABLE 1

mice = test: Toxicity, LD50 by intraperitoneal route (class B derivatives); assay type: in vivo; settings: death within 24 hours of 50% of the tested animals
Description: In the following table reported are LD50 values determined on mice for the listed compounds and compared with that of physostigmine administered by the same (intraperitoneal) route.

[19] = acetylcholinesterase inhibition 20 minutes after oral administration, limits in brackets

## CNCCCCCCCNC(=O)Oc1ccc2c(c1)[C@]1(C)CCN(C)[C@@H]1N2C [MGF001, (3a S-cis) - 1,2,3,3a,8,8a hexahydro - 1,3a,8 - trimethyl pyrrol [2,3-b]-indol-5-ol-N-methyl-aminoheptyl carbamate ester]
Mice (Swiss strain) [1]
  LD50 per os: 461.44 ± 51.33 mg/kg
[2]; 2 mg/kg/OS
  INHIBITION % OF ACETYLCHOLINESTERASE (AchE) after 60 minutes brain: 46.38 ± 4.12%
  INHIBITION % OF ACETYLCHOLINESTERASE (AchE) after 60 minutes serum: 42.6 ± 5.28%
  INHIBITION % OF ACETYLCHOLINESTERASE (AchE) after 120 minutes brain: 25.45 ± 2.18%
  INHIBITION % OF ACETYLCHOLINESTERASE (AchE) after 120 minutes serum: 19.83 ± 4.27%
[2]; [19]
  ED50 (mg/kg/os) brain: 1.83 (1.14 - 2.94) mg/kg/os
  ED50 (mg/kg/os) serum: 1.90 (1.13 - 3.20) mg/kg/os
[2]; oral, 1-2 mg/kg
  inhibitory acetylcholinesterase activity (in words): clear inhibitory dose-dependent and reversible
rabbit
  curare effect of succinylcholine compared with physostigmine: prolonged in the same way as physostigmine the curare effect of succinylcholine
SWISS male mice [3]
  modifications of the electroencephalogram: increase of the amplitude and a decrease of the frequency of the electroencephalogram
[4]
  concentration in plasma after 20 minutes: 11.48 ± 2.23 µg/mL
  concentration in plasma after 120 minutes: 28.41 ± 8.40 µg/mL
  concentration in plasma after 12 hours: 10.64 ± 5.46 µg/mL
  maximum peak in plasma: 47.60 ± 9.12 µg/mL
  time of the maximum peak in plasma: 90 '
Mouse [5]
  oral dose causing a significant decrease of the spontaneous motility: 2.5 to 5 mg/kg

## CN1CC[C@@]2(C)c3cc(OC(=O)NCCCCCCCCNC(=O)Oc4ccc5c(c4)[C@]4(C)CCN(C)[C@@H]4N5C)ccc3N(C)[C@@H]12 [MS001, (3a S-cis) - 1,2,3,3a,8,8a hexahydro - 1,3a,8 - trimethyl pyrrol [2,3-b]-indol-5-ol-1,8-octandicarbamate ester]
SWISS male mice [6]
  modifications of the electroencephalogram: increase of the amplitude and a decrease of the frequency of the electroencephalogram
[7]
  concentration in plasma after 15 minutes: 10.64 ± 6.26 µg/mL
  concentration in plasma after 120 minutes: 32.12 ± 6.41 µg/mL
  concentration in plasma after twelve hours: 11.31 ± 3.18 µg/mL
  maximum peak in plasma: 41.24 ± 8.36 µg/mL
  time of the maximum peak in plasma: 90 '
Mice (Swiss strain) [8]
  LD50 per os: 51.40 ± 5.48 mg/kg
Mouse [9]
  oral dose causing a significant decrease of the spontaneous motility: 0.25 mg/kg
Mouse [9]; oral, 0.25 mg/kg
  decrease of the spontaneous motility (on average): ~-25%
acetylcholinesterase; 0.2 mg/kg/OS
  INHIBITION % OF ACETYLCHOLINESTERASE (AchE) after 60 minutes brain: 43.41 ± 3.25%
  INHIBITION % OF ACETYLCHOLINESTERASE (AchE) after 60 minutes serum: 36.22 ± 6.20%
  INHIBITION % OF ACETYLCHOLINESTERASE (AchE) after 120 minutes brain: 19.6 ± 3.41%
  INHIBITION % OF ACETYLCHOLINESTERASE (AchE) after 120 minutes serum: 23.12 ± 5.28%
acetylcholinesterase; [19]
  ED50 (mg/kg/os) brain: 0.17 (0.12 - 0.23) mg/kg/os
  ED50 (mg/kg/os) serum: 0.18 (0.12 - 0.26) mg/kg/os

## CNC(=O)Oc1ccc2c(c1)[C@]1(C)CCN(C)[C@@H]1N2C [Physostigmine, physostigmine, reference compound]
[10]
  LD50: 4.5 mg/kg
[11]
  LD50 at 7 days: 3.78 ± 0.86 mg/kg
SWISS mice [12]
  dose completely undoing the hypermotor effect of scopolamine: 0.4 mg/kg/os
Mouse [13]
  LD50 (mg/kg i.p): 0.6 mg/kg i.p
Mouse [14]
  oral dose causing a significant decrease of the spontaneous motility: 0.6 mg/kg
[15]
  LD50 at 7 days: 4.12 ± 0.89 mg/kg
SWISS mice [16]
  dose completely undoing the hypermotor effect of scopolamine: 0.4 mg/kg/os
SWISS mice [17]
  dose completely undoing the hypermotor effect of scopolamine: 0.4 mg/kg/os
[18]
  LD50 at 7 days: 4.37 ± 1.22 mg/kg
Mouse [9]
  oral dose causing a significant decrease of the spontaneous motility: 0.6 mg/kg
acetylcholinesterase; in vivo, 0.4 mg/kg
  INHIBITION % OF ACETYLCHOLINESTERASE (AchE) after 60 minutes brain: 22.3 ± 5.12%
  INHIBITION % OF ACETYLCHOLINESTERASE (AchE) after 60 minutes serum: 18.41 ± 4.16%
  INHIBITION % OF ACETYLCHOLINESTERASE (AchE) after 120 minutes brain: 2.41 ± 1.33%
  INHIBITION % OF ACETYLCHOLINESTERASE (AchE) after 120 minutes serum: 3.44 ± 1.21%
acetylcholinesterase; in vivo, po
  ED50 (mg/kg/os) brain: 0.38 (0.24 - 0.60) mg/kg/os
  ED50 (mg/kg/os) serum: 0.37 (0.23 - 0.59) mg/kg/os
Mouse [5]
  oral dose causing a significant decrease of the spontaneous motility: 0.6 mg/kg
mice
  LD50 (mg/kg i.p.): 0.6 mg/kg i.p.
